Reference: ChEMBL document CHEMBL1201862, “PubChem BioAssay data set” (2004)
The source made the active and inactive calls.

Key:
[1] = molecular target: Ras and Rab interactor 1/Tyrosine-protein kinase ABL1 (Homo sapiens, UniProt P00519+Q13671); format: functional;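 further: biochemical TR-FRET dose-response test measuring inhibition of binding between Rin1 and Abl proteins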
[2] = tested on: CHO-K1; experiment: (§1) Counterscreen for antagonists of the orexin 1 receptor (OX1R; HCRTR1): Homogeneous time resolved fluorescence (HTRF)-based cell-based dose response assay to identify antagonists of the parental CHO-K1 cell line. [Related pubchem assays (depositor defined):AID434989, AID435008, AID463079, AID485270, AID492963, AID492964, AID492965, AID493232, AID504699, AID504701]; format: functional; conditions: Cricetulus griseus
[3] = as §1, with “Fluorescence-based” for “Homogeneous time resolved fluorescence (HTRF)-based”, “cell-based high throughput” for “cell-based”, “CHO” for “CHO-K1”; format: functional
[4] = molecular target: T1, Orexin/Hypocretin receptor type 1 (Homo sapiens, UniProt O43613); experiment: Homogeneous Time Resolved Fluorescence (HTRF)-based cell-based high throughput dose response assay for antagonists of the orexin 1 receptor (OX1R; HCRTR1). [Related pubchem assays (depositor defined):AID434989, AID435008, AID463079, AID485270, AID492963, AID492964, AID492965, AID493232, AID504717, AID504718]; format: functional
T1 sequence (O43613 whole entry): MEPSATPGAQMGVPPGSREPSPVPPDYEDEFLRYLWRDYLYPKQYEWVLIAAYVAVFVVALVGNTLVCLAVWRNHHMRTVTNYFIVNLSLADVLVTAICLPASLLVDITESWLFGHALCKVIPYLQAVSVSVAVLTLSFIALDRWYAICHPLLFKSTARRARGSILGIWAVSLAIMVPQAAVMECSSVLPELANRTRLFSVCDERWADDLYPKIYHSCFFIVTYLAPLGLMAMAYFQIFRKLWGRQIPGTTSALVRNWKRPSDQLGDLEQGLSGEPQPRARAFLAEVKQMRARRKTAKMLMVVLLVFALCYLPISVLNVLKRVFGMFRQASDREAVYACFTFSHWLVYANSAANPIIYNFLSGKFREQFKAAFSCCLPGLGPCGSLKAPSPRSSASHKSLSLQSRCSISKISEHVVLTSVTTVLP

[5] = molecular target: T1, Orexin/Hypocretin receptor type 1; experiment: Fluorescence-based cell-based high throughput dose response assay for antagonists of the orexin 1 receptor (OX1R; HCRTR1). [Related pubchem assays (depositor defined):AID434989, AID435008, AID463079, AID485270, AID492963, AID492964, AID492965, AID493232, AID504717, AID504718]; format: functional
[6] = molecular target: T2, Orexin receptor type 2 (Homo sapiens, UniProt O43614); experiment: Counterscreen assay for antagonists of the orexin 1 receptor (OX1R; HCRTR1): Fluorescence-based cell-based dose response assay for antagonists of the orexin 2 receptor (OX2R; HCRTR2), run by assay provider.; format: functional
T2 sequence (O43614 whole entry): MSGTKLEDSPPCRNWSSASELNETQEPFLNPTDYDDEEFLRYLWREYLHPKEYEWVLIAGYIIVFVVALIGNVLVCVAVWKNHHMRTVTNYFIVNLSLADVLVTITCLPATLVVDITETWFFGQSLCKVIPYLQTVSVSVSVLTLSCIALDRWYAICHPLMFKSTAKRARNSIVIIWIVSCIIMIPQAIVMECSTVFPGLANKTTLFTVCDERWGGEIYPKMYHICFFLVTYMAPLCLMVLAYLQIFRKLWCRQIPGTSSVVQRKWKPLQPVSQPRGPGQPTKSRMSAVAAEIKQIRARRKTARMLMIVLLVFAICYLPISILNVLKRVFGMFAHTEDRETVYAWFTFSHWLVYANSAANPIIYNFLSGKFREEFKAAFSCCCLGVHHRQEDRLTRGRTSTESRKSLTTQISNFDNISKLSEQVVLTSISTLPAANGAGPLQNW

[7] = molecular target: T2, Orexin receptor type 2; experiment: Counterscreen assay for antagonists of the orexin 1 receptor (OX1R; HCRTR1): Homogeneous Time Resolved Fluorescence (HTRF)-based cell-based dose response assay for antagonists of the orexin 2 receptor (OX2R; HCRTR2), run by assay provider.; format: functional
[8] = luciferase reporter signal suppression in cells – H4 neuroglioma cells, luminescence, dose response (AID 1990); format: functional, cell-based
[9] = Luminescence Cell-Based Dose Response HTS to Identify Inhibitors of 5'UTR Stem-Loop Driven Prion Protein mRNA Translation in H4 Neuroglioblastoma Cells. [Related pubchem assays: 1827 (Project Summary), 1813 (Primary HTS)]; format: functional
[10] = alpha-synuclein stem-loop luciferase translation blockers – H4 neuroglioma cells, luminescence, confirmation (AID 1988); format: functional, cell-based
[11] = molecular target: Cytochrome P450 2C19 (Homo sapiens, UniProt P33261); experiment: Cytochrome panel assay with activity outcomes. Panel member name: p450-cyp2c19 Compounds with AC50 equal or less than 10 uM are considered active; format: functional; conditions: read-out: AC50
[12] = activation of miR-122 Renilla sensor silencing – cell-based, Huh7 psiCHECK-miR122, Renilla luciferase, cherry-picked, dose response (AID 651956); format: functional;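 further: huh7 hepatoma cells stably carrying a psiCHECK-2 miR-122 sensor plasmid; renilla luciferase signal reporting endogenous miR-122 activity after 48 h compound exposure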
[13] = molecular target: Cytochrome P450 2C9 (Homo sapiens, UniProt P11712)
[14] = molecular target: Glucose-6-phosphate 1-dehydrogenase (Homo sapiens, UniProt P11413); experiment: inhibition of Homo sapiens G6PD, dose series – biochemical, fluorescence, selectivity assay for P. falciparum G6PD inhibitor project, dose response (AID 504792); format: functional
[15] = molecular target: T3, Apoptotic protease-activating factor 1 (Homo sapiens, UniProt O14727); format: functional;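 on EC50 Mean: caspase-3 cleavage of fluorogenic Rh110 DEVD substrate downstream of apoptosome activation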
T3 sequence (O14727 whole entry): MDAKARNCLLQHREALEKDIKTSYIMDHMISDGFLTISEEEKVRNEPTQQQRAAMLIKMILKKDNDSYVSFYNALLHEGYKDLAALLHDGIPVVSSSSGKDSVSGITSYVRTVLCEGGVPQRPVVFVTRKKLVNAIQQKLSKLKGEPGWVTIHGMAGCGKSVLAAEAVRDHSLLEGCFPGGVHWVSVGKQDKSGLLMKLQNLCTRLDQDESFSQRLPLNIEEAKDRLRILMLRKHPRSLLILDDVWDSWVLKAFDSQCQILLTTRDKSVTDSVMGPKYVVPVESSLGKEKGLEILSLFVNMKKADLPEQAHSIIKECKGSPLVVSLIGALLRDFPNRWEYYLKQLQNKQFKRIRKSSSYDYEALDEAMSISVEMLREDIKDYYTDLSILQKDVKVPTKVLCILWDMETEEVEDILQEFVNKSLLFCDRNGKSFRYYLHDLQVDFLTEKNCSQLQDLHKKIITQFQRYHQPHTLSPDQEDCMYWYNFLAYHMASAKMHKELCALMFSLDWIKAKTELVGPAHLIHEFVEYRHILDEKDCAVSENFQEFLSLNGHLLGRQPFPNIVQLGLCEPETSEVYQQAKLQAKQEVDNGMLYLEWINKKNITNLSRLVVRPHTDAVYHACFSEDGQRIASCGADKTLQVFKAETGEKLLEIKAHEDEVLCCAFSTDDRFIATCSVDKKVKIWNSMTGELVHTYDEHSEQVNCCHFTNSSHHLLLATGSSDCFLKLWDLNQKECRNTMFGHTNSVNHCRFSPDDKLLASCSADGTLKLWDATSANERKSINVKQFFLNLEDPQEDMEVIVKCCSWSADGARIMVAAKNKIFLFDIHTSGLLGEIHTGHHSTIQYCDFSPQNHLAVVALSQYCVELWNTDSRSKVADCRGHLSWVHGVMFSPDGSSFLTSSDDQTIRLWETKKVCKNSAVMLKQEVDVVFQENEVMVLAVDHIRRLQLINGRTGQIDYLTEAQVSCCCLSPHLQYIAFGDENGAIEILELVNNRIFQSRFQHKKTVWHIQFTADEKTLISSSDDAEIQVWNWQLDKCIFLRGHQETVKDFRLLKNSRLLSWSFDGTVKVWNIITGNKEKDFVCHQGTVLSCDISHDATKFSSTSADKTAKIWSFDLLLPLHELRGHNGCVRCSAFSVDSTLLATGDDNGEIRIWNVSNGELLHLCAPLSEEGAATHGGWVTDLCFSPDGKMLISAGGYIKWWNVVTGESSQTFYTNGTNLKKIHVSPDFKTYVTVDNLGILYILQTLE

[16] = viability loss in HeLa cells – cytotoxicity control for MgcRacGAP inhibitor project, dose response (AID 624300); format: functional
[17] = molecular target: T4, Rac GTPase-activating protein 1 (Homo sapiens, UniProt Q9H0H5); experiment: blockers of MgcRacGAP-driven Rac1 GTP hydrolysis – biochemical, ADP Hunter fluorescence, primary and confirmatory, confirmation (AID 624330); format: functional
T4 sequence (Q9H0H5 whole entry): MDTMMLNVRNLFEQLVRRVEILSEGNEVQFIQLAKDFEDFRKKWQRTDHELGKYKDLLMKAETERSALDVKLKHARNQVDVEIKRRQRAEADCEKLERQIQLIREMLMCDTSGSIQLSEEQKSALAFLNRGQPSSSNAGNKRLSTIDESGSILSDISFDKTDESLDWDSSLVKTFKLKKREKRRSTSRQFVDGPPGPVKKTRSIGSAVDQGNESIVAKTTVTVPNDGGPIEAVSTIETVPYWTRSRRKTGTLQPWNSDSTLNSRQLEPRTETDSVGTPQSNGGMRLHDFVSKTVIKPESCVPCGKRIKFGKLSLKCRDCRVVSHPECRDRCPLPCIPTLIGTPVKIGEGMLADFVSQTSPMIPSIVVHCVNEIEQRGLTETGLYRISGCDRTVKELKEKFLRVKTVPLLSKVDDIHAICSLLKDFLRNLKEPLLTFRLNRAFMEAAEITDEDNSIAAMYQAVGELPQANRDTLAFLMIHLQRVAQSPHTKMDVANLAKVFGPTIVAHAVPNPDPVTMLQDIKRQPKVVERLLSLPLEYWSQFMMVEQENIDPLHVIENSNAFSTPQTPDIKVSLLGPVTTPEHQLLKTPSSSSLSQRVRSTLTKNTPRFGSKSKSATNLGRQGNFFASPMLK

[18] = molecular target: T5, DNA repair protein RAD52 homolog (Homo sapiens, UniProt P43351); format: functional, biochemical
T5 sequence (P43351 whole entry): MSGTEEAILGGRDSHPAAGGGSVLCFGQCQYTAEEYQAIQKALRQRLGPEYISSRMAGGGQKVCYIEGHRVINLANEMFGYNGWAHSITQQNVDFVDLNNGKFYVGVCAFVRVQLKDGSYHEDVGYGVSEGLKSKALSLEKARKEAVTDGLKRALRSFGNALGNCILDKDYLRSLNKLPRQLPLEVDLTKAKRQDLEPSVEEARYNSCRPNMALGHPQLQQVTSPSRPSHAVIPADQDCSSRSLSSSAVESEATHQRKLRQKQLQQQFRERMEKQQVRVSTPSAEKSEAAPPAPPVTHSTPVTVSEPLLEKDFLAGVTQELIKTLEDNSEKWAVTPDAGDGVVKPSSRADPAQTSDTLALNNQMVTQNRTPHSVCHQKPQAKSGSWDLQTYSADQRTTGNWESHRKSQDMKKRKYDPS

[19] = molecular target: Kallikrein-7 (Homo sapiens, UniProt P49862); experiment: Fluorescence Intensity-based biochemical primary high throughput dose response assay to identify activators of kallikrein-7 (K7) zymogen.
[20] = molecular target: Beta-galactosidase (Escherichia coli, UniProt Q8VNN2); experiment: PubChem AID 485352; format: functional
[21] = molecular target: T6, Type-1 angiotensin II receptor (Homo sapiens, UniProt P30556); experiment: antagonism of angiotensin II type 1 receptor – cell-based, uHTS hits, selectivity assay for APJ receptor antagonist project, dose response (AID 463214); format: functional;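 further: antagonist potency against angiotensin II stimulated AT1 response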
T6 sequence (P30556 whole entry): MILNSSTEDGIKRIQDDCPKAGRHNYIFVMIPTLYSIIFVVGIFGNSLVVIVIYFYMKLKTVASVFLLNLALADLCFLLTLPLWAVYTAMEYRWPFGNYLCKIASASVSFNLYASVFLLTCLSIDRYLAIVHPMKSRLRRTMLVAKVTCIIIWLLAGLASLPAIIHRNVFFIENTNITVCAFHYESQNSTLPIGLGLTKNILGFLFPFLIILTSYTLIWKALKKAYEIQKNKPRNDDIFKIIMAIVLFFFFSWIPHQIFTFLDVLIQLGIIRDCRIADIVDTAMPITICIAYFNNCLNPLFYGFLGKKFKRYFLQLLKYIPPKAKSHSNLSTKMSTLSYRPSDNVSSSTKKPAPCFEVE

[22] = molecular target: T3, Apoptotic protease-activating factor 1; experiment: SAR analysis of small molecule Activators of Apaf-1 in a Fluorescent assay.; format: functional; conditions: read-out: EC50_Mean

Sequence of Ras and Rab interactor 1/Tyrosine-protein kinase ABL1 (P00519 whole entry): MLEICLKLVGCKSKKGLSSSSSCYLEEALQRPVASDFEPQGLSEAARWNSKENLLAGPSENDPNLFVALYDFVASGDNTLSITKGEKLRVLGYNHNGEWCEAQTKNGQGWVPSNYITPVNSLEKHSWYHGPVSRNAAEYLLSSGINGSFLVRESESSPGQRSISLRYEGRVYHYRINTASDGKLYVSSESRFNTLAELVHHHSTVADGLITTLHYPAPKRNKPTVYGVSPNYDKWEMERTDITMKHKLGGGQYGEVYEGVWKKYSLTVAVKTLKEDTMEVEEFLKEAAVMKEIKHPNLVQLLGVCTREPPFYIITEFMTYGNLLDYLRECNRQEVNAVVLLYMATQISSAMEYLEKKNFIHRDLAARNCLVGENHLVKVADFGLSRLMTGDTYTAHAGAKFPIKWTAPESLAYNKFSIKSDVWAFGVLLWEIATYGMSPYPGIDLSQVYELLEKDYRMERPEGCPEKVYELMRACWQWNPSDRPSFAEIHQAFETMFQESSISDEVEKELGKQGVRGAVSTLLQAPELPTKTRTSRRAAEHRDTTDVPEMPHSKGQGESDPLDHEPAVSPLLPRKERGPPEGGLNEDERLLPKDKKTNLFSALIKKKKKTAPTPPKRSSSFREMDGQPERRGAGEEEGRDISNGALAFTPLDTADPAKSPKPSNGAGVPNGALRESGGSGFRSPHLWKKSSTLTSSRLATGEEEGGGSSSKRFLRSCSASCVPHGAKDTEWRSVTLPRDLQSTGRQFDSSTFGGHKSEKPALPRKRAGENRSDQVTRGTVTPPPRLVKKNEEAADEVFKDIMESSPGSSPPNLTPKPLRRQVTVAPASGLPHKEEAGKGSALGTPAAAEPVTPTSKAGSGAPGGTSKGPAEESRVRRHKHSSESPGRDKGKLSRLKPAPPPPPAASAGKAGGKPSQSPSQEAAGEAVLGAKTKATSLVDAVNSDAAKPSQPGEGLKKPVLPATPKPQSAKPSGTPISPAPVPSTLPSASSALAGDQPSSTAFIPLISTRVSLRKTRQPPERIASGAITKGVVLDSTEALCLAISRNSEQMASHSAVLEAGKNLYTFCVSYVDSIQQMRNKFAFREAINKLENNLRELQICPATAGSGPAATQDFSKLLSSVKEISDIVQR
Sequence of Ras and Rab interactor 1/Tyrosine-protein kinase ABL1 (Q13671 whole entry): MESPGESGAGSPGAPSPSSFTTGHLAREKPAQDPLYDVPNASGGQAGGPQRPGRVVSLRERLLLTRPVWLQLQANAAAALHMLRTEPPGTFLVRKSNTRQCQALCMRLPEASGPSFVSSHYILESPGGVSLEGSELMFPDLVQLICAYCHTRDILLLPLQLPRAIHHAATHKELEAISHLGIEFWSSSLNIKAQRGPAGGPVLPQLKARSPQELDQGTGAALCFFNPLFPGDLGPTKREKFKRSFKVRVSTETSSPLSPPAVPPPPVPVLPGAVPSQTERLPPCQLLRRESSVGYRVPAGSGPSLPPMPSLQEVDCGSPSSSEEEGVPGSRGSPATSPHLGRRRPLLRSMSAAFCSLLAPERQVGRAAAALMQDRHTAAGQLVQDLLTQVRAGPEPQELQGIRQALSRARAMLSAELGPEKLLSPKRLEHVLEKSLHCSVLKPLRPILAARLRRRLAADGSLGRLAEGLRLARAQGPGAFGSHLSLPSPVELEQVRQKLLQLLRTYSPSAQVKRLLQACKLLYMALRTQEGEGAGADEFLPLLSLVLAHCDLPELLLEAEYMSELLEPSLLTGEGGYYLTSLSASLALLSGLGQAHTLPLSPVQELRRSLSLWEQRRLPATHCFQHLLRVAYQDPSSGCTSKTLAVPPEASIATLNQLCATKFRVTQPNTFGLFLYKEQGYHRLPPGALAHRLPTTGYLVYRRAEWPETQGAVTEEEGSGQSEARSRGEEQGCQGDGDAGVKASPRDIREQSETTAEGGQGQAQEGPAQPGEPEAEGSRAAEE
Sequence of Glucose-6-phosphate 1-dehydrogenase (P11413 whole entry): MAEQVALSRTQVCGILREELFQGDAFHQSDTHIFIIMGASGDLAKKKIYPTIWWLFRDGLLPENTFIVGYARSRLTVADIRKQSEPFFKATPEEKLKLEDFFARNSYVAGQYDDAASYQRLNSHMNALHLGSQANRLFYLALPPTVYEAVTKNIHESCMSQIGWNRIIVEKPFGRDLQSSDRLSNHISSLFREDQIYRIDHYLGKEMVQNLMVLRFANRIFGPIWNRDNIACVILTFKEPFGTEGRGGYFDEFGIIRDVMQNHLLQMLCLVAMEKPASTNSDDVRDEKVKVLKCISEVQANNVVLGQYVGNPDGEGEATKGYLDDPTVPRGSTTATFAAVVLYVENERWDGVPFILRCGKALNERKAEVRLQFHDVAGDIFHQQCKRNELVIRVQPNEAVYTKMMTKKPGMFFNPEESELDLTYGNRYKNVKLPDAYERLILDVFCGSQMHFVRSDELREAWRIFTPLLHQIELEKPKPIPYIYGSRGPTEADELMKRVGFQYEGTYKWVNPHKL
Sequence of Cytochrome P450 2C9 (P11712 whole entry): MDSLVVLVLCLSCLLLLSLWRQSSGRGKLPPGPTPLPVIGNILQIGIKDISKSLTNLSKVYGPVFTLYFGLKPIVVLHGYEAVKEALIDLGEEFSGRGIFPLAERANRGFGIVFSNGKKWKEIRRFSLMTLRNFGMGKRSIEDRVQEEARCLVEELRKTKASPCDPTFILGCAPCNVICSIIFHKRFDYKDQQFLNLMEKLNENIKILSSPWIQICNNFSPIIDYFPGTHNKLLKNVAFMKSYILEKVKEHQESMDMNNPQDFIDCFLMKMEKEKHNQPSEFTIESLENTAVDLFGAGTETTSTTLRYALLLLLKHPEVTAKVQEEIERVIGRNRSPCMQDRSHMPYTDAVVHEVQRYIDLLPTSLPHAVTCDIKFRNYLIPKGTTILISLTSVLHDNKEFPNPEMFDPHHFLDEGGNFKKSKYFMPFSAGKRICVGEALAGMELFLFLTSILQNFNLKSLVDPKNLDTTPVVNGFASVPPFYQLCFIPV
Sequence of Cytochrome P450 2C19 (P33261 whole entry): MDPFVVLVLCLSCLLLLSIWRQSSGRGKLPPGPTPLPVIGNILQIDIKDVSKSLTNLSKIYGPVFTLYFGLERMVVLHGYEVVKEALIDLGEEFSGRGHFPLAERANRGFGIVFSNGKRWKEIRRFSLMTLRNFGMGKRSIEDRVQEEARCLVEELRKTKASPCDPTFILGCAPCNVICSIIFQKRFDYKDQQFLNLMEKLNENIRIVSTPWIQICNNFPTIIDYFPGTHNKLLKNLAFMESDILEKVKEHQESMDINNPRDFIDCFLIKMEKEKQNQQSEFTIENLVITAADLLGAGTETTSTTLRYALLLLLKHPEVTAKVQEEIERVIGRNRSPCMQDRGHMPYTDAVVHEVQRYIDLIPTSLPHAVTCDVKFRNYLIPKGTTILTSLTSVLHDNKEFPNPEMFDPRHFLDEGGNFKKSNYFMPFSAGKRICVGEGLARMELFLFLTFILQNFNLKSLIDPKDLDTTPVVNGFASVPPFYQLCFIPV
Sequence of Kallikrein-7 (P49862 whole entry): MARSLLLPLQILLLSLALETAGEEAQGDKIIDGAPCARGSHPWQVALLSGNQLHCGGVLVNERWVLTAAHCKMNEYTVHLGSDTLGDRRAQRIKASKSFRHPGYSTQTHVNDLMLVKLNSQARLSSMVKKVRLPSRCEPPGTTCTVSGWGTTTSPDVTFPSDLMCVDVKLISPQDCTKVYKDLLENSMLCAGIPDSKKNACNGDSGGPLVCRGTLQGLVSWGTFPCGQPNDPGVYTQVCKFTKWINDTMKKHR
Sequence of Beta-galactosidase (Q8VNN2 whole entry): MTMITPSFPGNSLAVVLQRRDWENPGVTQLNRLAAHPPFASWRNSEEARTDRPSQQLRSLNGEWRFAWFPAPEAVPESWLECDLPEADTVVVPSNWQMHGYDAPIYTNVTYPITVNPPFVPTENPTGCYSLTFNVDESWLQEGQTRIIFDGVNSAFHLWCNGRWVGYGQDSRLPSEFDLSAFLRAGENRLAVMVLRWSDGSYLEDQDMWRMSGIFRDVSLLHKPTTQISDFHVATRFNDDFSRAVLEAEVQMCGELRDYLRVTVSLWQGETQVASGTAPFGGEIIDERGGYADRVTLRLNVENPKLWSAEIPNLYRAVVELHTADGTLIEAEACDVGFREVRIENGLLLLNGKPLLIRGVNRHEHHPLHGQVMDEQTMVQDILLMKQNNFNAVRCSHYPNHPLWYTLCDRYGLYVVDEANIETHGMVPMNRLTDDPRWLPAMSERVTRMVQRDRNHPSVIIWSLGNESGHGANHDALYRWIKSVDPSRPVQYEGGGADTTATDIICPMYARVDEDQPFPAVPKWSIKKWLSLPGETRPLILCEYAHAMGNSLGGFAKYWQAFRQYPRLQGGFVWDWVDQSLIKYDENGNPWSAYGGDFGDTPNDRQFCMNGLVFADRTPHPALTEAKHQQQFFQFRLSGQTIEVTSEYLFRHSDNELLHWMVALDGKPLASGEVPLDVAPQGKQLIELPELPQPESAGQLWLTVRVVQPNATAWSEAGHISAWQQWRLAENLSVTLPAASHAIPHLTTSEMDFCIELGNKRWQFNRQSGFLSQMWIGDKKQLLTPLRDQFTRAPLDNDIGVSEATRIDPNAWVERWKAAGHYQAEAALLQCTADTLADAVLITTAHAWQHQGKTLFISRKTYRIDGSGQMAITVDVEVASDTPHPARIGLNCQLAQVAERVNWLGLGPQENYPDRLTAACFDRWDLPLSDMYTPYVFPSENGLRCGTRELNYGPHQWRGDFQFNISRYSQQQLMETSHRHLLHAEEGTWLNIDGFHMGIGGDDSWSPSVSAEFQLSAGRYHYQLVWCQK

With CC(C)n1cc(CN2CCC(C(=O)Nc3cccc(-c4cscn4)c3)CC2)cn1 the IC50 [1] was 54.5 µM (inactive).
In the case of CN(C)/C=C1/Oc2c(ccc3ccccc23)C1=O, the IC50 [2] is reported as > 66.2 µM (inactive), the IC50 [3] is reported as > 49.7 µM (inactive) and the IC50 [4] is reported as 2.06 µM (active). For the same compound, the IC50 [5] was 33.3 µM (inactive), the IC50 [6] was > 88.8 µM (inactive) and the IC50 [7] was 18.3 µM (inactive).
For CN(C)CCNc1ncnc2c1sc1nc(N3CCOCC3)c3c(c12)CC(C)(C)SC3, the EC50 [8] was 8.43 µM (active), the EC50 [9] was 23.9 µM (active) and the EC50 [10] was 8.17 µM (active). The AC50 [11] was 31.6 µM (inconclusive), the IC50 [1] was 13.7 µM (inactive) and the AC50 [12] was 12.9 µM (active). The AC50 [13] was 25.1 µM (inconclusive).
With CN(C)/C=N/c1ccc2[nH]c3c4ccccc4nc-3cc2c1 the IC50 [14] was > 80 µM (inactive), the IC50 [15] was 30.7 µM (active) and the CC50 [16] was 100 µM (active). For the same compound, the IC50 [17] was 52.8 µM (active), the AC50 [18] was 3.13 µM (active) and the EC50 [19] was > 2.57 µM (active).
In the case of CN(/N=C/c1cc([N+](=O)[O-])ccc1O)c1ccccc1, the EC50 [20] is reported as > 40 µM (inactive), the IC50 [21] is reported as > 40 µM (not active) and the IC50 [2] is reported as > 66.2 µM (inactive). For the same compound, the IC50 [3] was > 49.7 µM (inactive), the IC50 [4] was 2.39 µM (active) and the IC50 [5] was 2.48 µM (active). The IC50 [6] was > 88.8 µM (inactive) and the IC50 [7] was > 50 µM (inactive).
For O=C(O)c1coc(-c2ccc(Cl)cc2)n1, the EC50 [22] was > 100 µM (inactive).
In the case of COC(=O)c1coc(-c2ccc(Cl)cc2)n1, the EC50 [22] is reported as > 100 µM (inactive).
